Data taken from US8039009B2, “Modified release formulations of memantine oral dosage forms” (priority 2004, dated 2011).

Assay: Powder testing of final blends for compression (flow and compression properties)
Type: physicochemical
Experimental: The powder properties of the final blends for compression were evaluated. During compression, excellent powder flow through the hopper was visually observed. The following Table presents the results of powder testing.

Q: Which “flow and compression properties (in words)” value does the source give for CC12CC3CC(C)(C1)CC(N)(C3)C2 [memantine, 1-amino-3,5-dimethyladamantane] here?
A: poor flow properties

Q: What about the “Flowability Index” value (powder) of the same compound?
A: 23.5
